Test results published in patent US20240382497A1, “PROPHYLACTIC OR THERAPEUTIC AGENT FOR HYPOXIC INJURY, ISCHAEMIA-REPERFUSION INJURY AND INFLAMMATION, CELL PROTECTION AGENT FOR TRANSPLANTATION, AND BIO-PRESERVATION AGENT” (priority 2018, published 2024).

Experiments:
Assay type in all cases: in vivo, mouse
Male C57/BL6N mice [1] = test: Heart rate on odor presentation (radio-telemetry); conditions: filter paper scented with 271 μmol odor
Procedure: An influence of a thiazoline-related compound and an odor molecule that induces learned fear on the heart rate was analyzed. A radio-telemetry device for monitoring biological parameters (manufactured by Physiotel) was surgically implanted in the abdomen of male C57/BL6N mice (about 3 months old). The mice were subjected to the following experiment after about 10 days of recovery period. Each mouse was placed in a test cage and, after acclimation for 10 min, a filter paper dropped with water was presented for 10 min, after which a filter paper scented with 271μmol of a thiazoline-related compound (2-methyl-2-thiazoline; 2MT) or an odor molecule that induces learned fear (anisole) was presented for 20 min. The information of heart rate was recorded every 10 sec using Dataquest A.R.T. software (DataScience international). The value of the heart rate change was calculated as the difference between the heart rate for 10 min when water was presented and the mean heart rate for 20 min when each odor molecule was presented, and the change in the heart rate without odor was set to 0. The mice presented with the odor that induces learned fear were trained to associate the anisole odor with electric shock one day before the measurement, whereby the mice learned to feel learned fear against the smell of anisole.

C57/BL6N male mice [2] = test: Core body temperature under the odor conditions of Example 14; conditions: odor presentation conditions of Example 14
Procedure: (§1) An influence of a thiazoline-related compound and an odor molecule that induces learned fear on the core body temperature was analyzed. A radio-telemetry device for monitoring biological parameters (manufactured by Physiotel) was surgically implanted in the abdomen of male C57/BL6N mice (about 3 months old). The mice were subjected to the following experiment after about 10 days of recovery period. […] The information of body temperature was recorded every 10 sec using Dataquest A.R.T. software (DataScience international). The value of the core body temperature change was calculated as the difference between the mean core body temperature for 10 min when water was presented and the mean core body temperature for 20 min when each odor molecule was presented, and the change in the core body temperature without odor was set to 0. […]
Skin ischemia-reperfusion injury model mouse was generated as follows according to the method of Uchiyama et al. (Uchiyama et al., Sci Rep 5:9072, 2015). […] The condition of the skin on the back, which was pinched between magnets, was recorded by taking photographs every day. Based on the obtained images, the wound area was quantified with image analysis software (Photoshop, Adobe). Furthermore, changes in the core body temperature when the odor was presented under the same conditions as in this Example were measured by the same experimental method as in Example 2.

Male C57/BL6N mice [3] = test: Core body temperature on odor presentation (radio-telemetry); conditions: filter paper scented with 271 μmol odor, 20 min, versus no odor
Procedure: An influence of a thiazoline-related compound and an odor molecule that induces learned fear on the core body temperature was analyzed. A radio-telemetry device for monitoring biological parameters (manufactured by Physiotel) was surgically implanted in the abdomen of male C57/BL6N mice (about 3 months old). The mice were subjected to the following experiment after about 10 days of recovery period. Each mouse was placed in a test cage and, after acclimation for 10 min, a filter paper dropped with water was presented for 10 min, after which a filter paper scented with 271 μmol of a thiazoline-related compound (2-methyl-2-thiazoline; 2MT) or an odor molecule that induces learned fear (anisole) was presented for 20 min. The information of body temperature was recorded every 10 sec using Dataquest A.R.T. software (DataScience international). The value of the core body temperature change was calculated as the difference between the mean core body temperature for 10 min when water was presented and the mean core body temperature for 20 min when each odor molecule was presented, and the change in the core body temperature without odor was set to 0. The mice presented with the odor that induces learned fear were trained to associate the anisole odor with electric shock one day before the measurement, whereby the mice learned to feel learned fear against the smell of anisole.

C57/BL6N male mice [4] = test: Oxygen consumption on odor presentation; conditions: filter paper scented with 100 μl (104 mmol) odor, versus saline
Procedure: (§2) An influence of a thiazoline-related compound on the oxygen consumption was analyzed. The oxygen consumption was analyzed using an energy metabolism measurement device for small animals (ARCO-2000; ARCO SYSTEM). About 3-month-old C57/BL6N male mice were each placed in a measuring chamber and, after acclimation for about 2 hr, a thiazoline-related compound (2MT) was presented. The odors were presented by placing filter papers scented with 100 μl (104 mmol) of odor molecules in the measuring chamber. As a control, an experiment in which a filter paper dropped with saline was presented to the mice was also performed. The oxygen consumption was measured every one min. Mean oxygen consumption was calculated as the mean of 10 min before presenting odor and 20 min after presenting odor.

C57/BL6N male mice [5] = test: Core body temperature under the odor conditions of Example 9; conditions: odor presentation conditions of Example 9
Procedure: as §1
About 3-month-old C57/BL6N male mice were each placed in a highly sealed breeding cage, and a filter paper scented with 100 μl (104 mmol) of the thiazoline-related compound (2MT) was placed in the breeding cage, and the odor was presented for 50 min. After the odor was presented, the mice were placed in a tight box in which the oxygen concentration was adjusted to 4%, and the survival time of the mice was measured up to 30 min at maximum. As a control, the survival time of mice presented with a filter paper dropped with water was also measured (no odor). […]

mice = test: Oxygen consumption after intraperitoneal injection; conditions: versus saline
Procedure: as §2
Changes in the oxygen consumption induced by intraperitoneal injection of heterocyclic compounds (2MT and Thiomorpholine (TMO) were measured by a method similar to that in Example 8.

Interleukin-1β (IL-1β) = test: Blood IL-1β in LPS sepsis model (ELISA); conditions: about 80 mg/kg i.p., 1 hr and 4 hr, versus saline
Procedure: Lipopolysaccharide (LPS) (0.6 mg/kg) was intraperitoneally administered to male Balb/c mice (about 2-3 months old) to generate a sepsis model. Immediately after the LPS administration, 200 μl (about 80 mg/kg) of a solution prepared by diluting various heterocyclic compounds and isothiocyanate compounds 100 times with saline was intraperitoneally administered. Blood samples were collected 60 min after LPS and compound administration, EDTA plasma was prepared, and the blood level of inflammatory cytokine TNF-a was measured by the ELISA method.
A sepsis model mouse was prepared by the same method as in Example 18. Immediately after the LPS administration, 200 μl (about 80 mg/kg) of a thiazoline-related compound (2MT) solution prepared by diluting 100 times with saline was intraperitoneally administered. Blood samples were collected 1 hr and 4 hr after administration of LPS and thiazoline-related compound (2MT), EDTA plasma was prepared, and the blood levels of inflammatory cytokine Interleukin-1β (IL-1β), and anti-inflammatory cytokine Interleukin-10 (IL-10) were measured by the ELISA method.

**Q.** For `CC1=NCCS1` [2MT, 2-methyl-2-thiazoline], which “time to decrease in the heart rate to half” value (Male C57/BL6N mice [1]) is on record?
**A.** The value was no more than 3 min.

**Q.** And the “changes in the heart rate” value (Male C57/BL6N mice [1]; 20 min, versus no odor)?
**A.** Its value is “clear decrease in the heart rate”.

**Q.** What about the core body temperature (C57/BL6N male mice [2]) of the same compound?
**A.** Its core body temperature is “remarkable decrease in the core body temperature”.

**Q.** What about the “changes in the core body temperature” value (Male C57/BL6N mice [3]) of the same compound?
**A.** The value was “clear decrease in the core body temperature”.

**Q.** And the “oxygen consumption per body weight” value (C57/BL6N male mice [4])?
**A.** Its value is “decreased remarkably”.

**Q.** What about the core body temperature (C57/BL6N male mice [5]) of the same compound?
**A.** The core body temperature was “remarkable decrease in the core body temperature”.

**Q.** And the oxygen consumption (mice)?
**A.** The oxygen consumption was “suppress the oxygen consumption”.

**Q.** What about the “blood concentration of IL-1β” value (Interleukin-1β (IL-1β)) of the same compound?
**A.** Its value is “decreased the blood concentration of inflammatory cytokine IL-1β”.
